ChEMBL document CHEMBL3885881, “DrugMatrix”

Organism: Rattus norvegicus
Test: DrugMatrix - Regimen: Daily Repeat
Format: toxicity, organism-based, Sprague-Dawley
Parameters: regimen Daily Repeat, gender Male, age 6-8 weeks
Details: in vivo, po, route oral GAVAGE, vehicle .5 % CMC; for ABSOLUTE BASOPHIL / ABSOLUTE EOSINOPHIL / ABSOLUTE LYMPHOCYTE / ABSOLUTE MONOCYTE / ABSOLUTE SEGMENTED NEUTROPHIL / BASOPHIL / EOSINOPHIL / ERYTHROCYTE COUNT / HEMATOCRIT / HEMOGLOBIN / LEUKOCYTE COUNT / LYMPHOCYTE / MEAN CORPUSCULAR HEMOGLOBIN CONCENTRATION / MEAN CORPUSCULAR VOLUME / MONOCYTE / NEUTROPHIL / NUCLEATED RED BLOOD CELLS / PLATELET COUNT: tissue Blood; for ALANINE AMINOTRANSFERASE / ALBUMIN / ALKALINE PHOSPHATASE / BLOOD UREA NITROGEN / CARBON DIOXIDE / CHLORIDE / CHOLESTEROL / CREATINE PHOSPHOKINASE / CREATININE / GLUCOSE / LACTATE DEHYDROGENASE / LIPASE / PHOSPHORUS / POTASSIUM / SODIUM / TOTAL BILIRUBIN / TOTAL PROTEIN: tissue Plasma
[1] = 0 mg/kg, 72 h, dose level Control, time 3 day
[2] = 0 mg/kg, 120 h, dose level Control, time 5 day
[3] = 60 mg/kg, 72 h, dose level High, time 3 day

## CO[C@H]1C[C@@H]2CC[C@@H](C)[C@@](O)(O2)C(=O)C(=O)N2CCCC[C@H]2C(=O)O[C@H]([C@H](C)C[C@@H]2CC[C@@H](O)[C@H](OC)C2)CC(=O)[C@H](C)/C=C(\C)[C@@H](O)[C@@H](OC)C(=O)[C@H](C)C[C@H](C)/C=C/C=C/C=C/1C [SIROLIMUS]
[1]
  ABSOLUTE BASOPHIL: 0 CELLS/uL
  ABSOLUTE EOSINOPHIL: 47.67 CELLS/uL
  ABSOLUTE LYMPHOCYTE: 15937.67 CELLS/uL
  ABSOLUTE MONOCYTE: 138.33 CELLS/uL
  ABSOLUTE SEGMENTED NEUTROPHIL: 1443 CELLS/uL
  BASOPHIL: 0%
  EOSINOPHIL: 0.33%
  ERYTHROCYTE COUNT: 5.45 x10E6/uL
  HEMATOCRIT: 34.43%
  HEMOGLOBIN: 13.38 G/DL
  LEUKOCYTE COUNT: 17.57 x10E3/uL
  LYMPHOCYTE: 90.33%
  MEAN CORPUSCULAR HEMOGLOBIN CONCENTRATION: 38.88 G/DL
  MEAN CORPUSCULAR VOLUME: 63.27 fL
  MONOCYTE: 0.83%
  NEUTROPHIL: 8.5%
  NUCLEATED RED BLOOD CELLS: 0 /100WBC
  PLATELET COUNT: 1298 x10E3/uL
  ALANINE AMINOTRANSFERASE: 47.67 u/L
  ALBUMIN: 4.18 G/DL
  ALKALINE PHOSPHATASE: 398.5 u/L
  BLOOD UREA NITROGEN: 16 mg/dL
  CARBON DIOXIDE: 29.17 mmol/L
  CHLORIDE: 98.17 MEQ/L
  CHOLESTEROL: 68.83 mg/dL
  CREATINE PHOSPHOKINASE: 467.33 u/L
  CREATININE: 0.14 mg/dL
  GLUCOSE: 151.67 mg/dL
  LACTATE DEHYDROGENASE: 597.5 u/L
  LIPASE: 9.33 u/L
  PHOSPHORUS: 11.97 mg/dL
  POTASSIUM: 6.43 MEQ/L
  SODIUM: 140.68 MEQ/L
  TOTAL BILIRUBIN: 0.18 mg/dL
  TOTAL PROTEIN: 5.82 G/DL
[2]
  ABSOLUTE BASOPHIL: 0 CELLS/uL
  ABSOLUTE EOSINOPHIL: 31 CELLS/uL
  ABSOLUTE LYMPHOCYTE: 14327.83 CELLS/uL
  ABSOLUTE MONOCYTE: 102.83 CELLS/uL
  ABSOLUTE SEGMENTED NEUTROPHIL: 1321.67 CELLS/uL
  BASOPHIL: 0%
  EOSINOPHIL: 0.17%
  ERYTHROCYTE COUNT: 5.79 x10E6/uL
  HEMATOCRIT: 36.1%
  LEUKOCYTE COUNT: 15.78 x10E3/uL
  LYMPHOCYTE: 90.5%
  MEAN CORPUSCULAR HEMOGLOBIN CONCENTRATION: 39.22 G/DL
  MEAN CORPUSCULAR VOLUME: 62.4 fL
  MONOCYTE: 0.67%
  NEUTROPHIL: 8.67%
  NUCLEATED RED BLOOD CELLS: 0.17 /100WBC
  PLATELET COUNT: 1211.67 x10E3/uL
  ALANINE AMINOTRANSFERASE: 49 u/L
  ALBUMIN: 4.27 G/DL
  ALKALINE PHOSPHATASE: 356.67 u/L
  BLOOD UREA NITROGEN: 20.5 mg/dL
  CARBON DIOXIDE: 29.17 mmol/L
  CHLORIDE: 98 MEQ/L
  CHOLESTEROL: 69.83 mg/dL
  CREATINE PHOSPHOKINASE: 312 u/L
  CREATININE: 0.21 mg/dL
  GLUCOSE: 149.83 mg/dL
  LACTATE DEHYDROGENASE: 322 u/L
  LIPASE: 10 u/L
  PHOSPHORUS: 12 mg/dL
  POTASSIUM: 6.75 MEQ/L
  SODIUM: 142.8 MEQ/L
  TOTAL BILIRUBIN: 0.17 mg/dL
  TOTAL PROTEIN: 6.1 G/DL
[3]
  ABSOLUTE BASOPHIL: 0 CELLS/uL
  ABSOLUTE EOSINOPHIL: 0 CELLS/uL
  ABSOLUTE LYMPHOCYTE: 11212.33 CELLS/uL
  ABSOLUTE SEGMENTED NEUTROPHIL: 775.67 CELLS/uL
  BASOPHIL: 0%
  EOSINOPHIL: 0%
  ERYTHROCYTE COUNT: 6.32 x10E6/uL
  HEMATOCRIT: 39.93%
  HEMOGLOBIN: 15.57 G/DL
  LEUKOCYTE COUNT: 12.23 x10E3/uL
  LYMPHOCYTE: 91.67%
  MEAN CORPUSCULAR HEMOGLOBIN CONCENTRATION: 39 G/DL
  MEAN CORPUSCULAR VOLUME: 63.4 fL
  MONOCYTE: 2%
  NEUTROPHIL: 6.33%
  NUCLEATED RED BLOOD CELLS: 0 /100WBC
  PLATELET COUNT: 1112 x10E3/uL
  ALANINE AMINOTRANSFERASE: 51.33 u/L
  ALBUMIN: 4.23 G/DL
  ALKALINE PHOSPHATASE: 271 u/L
  BLOOD UREA NITROGEN: 18.33 mg/dL
  CARBON DIOXIDE: 29.67 mmol/L
  CHLORIDE: 97.67 MEQ/L
  CHOLESTEROL: 84.33 mg/dL
  CREATINE PHOSPHOKINASE: 323.67 u/L
  CREATININE: 0.19 mg/dL
  GLUCOSE: 192 mg/dL
  LACTATE DEHYDROGENASE: 111.33 u/L
  LIPASE: 10.33 u/L
  PHOSPHORUS: 11.37 mg/dL
  POTASSIUM: 5.46 MEQ/L
  SODIUM: 143.47 MEQ/L
  TOTAL BILIRUBIN: 0.17 mg/dL
  TOTAL PROTEIN: 5.9 G/DL
60 mg/kg, 120 h, dose level High, time 5 day
  ABSOLUTE BASOPHIL: 0 CELLS/uL
